Results published in US5863918A, “Naphthalene derivatives” (Fujisawa Pharmaceutical Co., Ltd., priority 1994, dated 1999).
Where a name gives a salt, the structure may show the parent alone.

Legend:
human IP receptor = test: Receptor binding assay ([^3 H]-iloprost binding to human IP receptor expressed in COS7); details: test compound 1×10^-6 M; 10 nM [^3 H]-iloprost; 60 minutes, 30° C.
Description: cDNA of human IP receptor was cloned and expressed in COS7 using pCDM8 vector in a similar manner to that described in the literatures [J. Biol. Chem., Vol. 269, No. 16, pp.12173-12178 (1994): Circulation, Vol. 90, No. 4, pp1643-1647 (1994) FEBS Letters 344 (1994) 74-78].
After transfection, cells which expressed human IP receptor were collected with ce l scraper at 4° C. and stored in -80° C.
The composition of assay buffer was as follows: 20 mM MES (pH 6.0), 10 mM MgCl2, 1 mM EDTA, and 0.1 mM PMSF. Frozen cells were thawed and aliquots (4.5×10^5 cells) were incubated for 60 minutes under shaking at 30° C. in plastic tubes in 100 μl of assay buffer with 10 nM of [^3 H]-iloprost in the presence or absence of the test compound (1×10^-6 M).
To determine the non-specific binding, iloprost at 10 μM was added. Each assay was preformed in duplicate. Reaction mixture was filtered through a Whatman GF/C glass filter to stop the reaction. After washing the filter with ice-cold assay buffer, the radioactivity of the filter was countered. Non-specific binding was subtracted from total binding to yield specific binding. The effect of the test compound was expressed as % inhibition of specific [^3 H]-iloprost binding.

[1] = system: human platelet aggregation induced by ADP; test: Inhibition of human platelet aggregation induced by ADP; type: cell-based; details: ADP 2.5 μM, platelet rich plasma, mean ± S.E.
Description: Human blood was obtained from healthy volunteers and mixed with 1/10 volume of 3.8% sodium citrate, pH 7.4. The citrate blood was centrifuged at 150×g for 10 minutes and the platelet rich plasma (PRP) was removed. The remaining blood was centrifuged for a further 10 minutes at 1500×g to prepare the platelet poor plasma (PPP), which was used as a reference for platelet aggregation. Aggregation studies were carried out using HEMATRACER 801 (NBS, Japan), a 8 channel aggregometer. 25 μl of sample solution and 225 μl of PRP were mixed and stirred at 1000 rpm for 2 minutes at 37° C. Aggregation was induced by ADP solution at the final concentration of 2.5 μM.

[2] = system: mean arterial blood pressure in conscious rats; test: Effect on mean arterial blood pressure in conscious rats; type: in vivo, rat (male Sprague-Dawley); details: 10 mg/kg; intravenous (femoral vein)
Description: Male Sprague-Dawley rats, aged 8-9 weeks, were anesthetized with ether. A polyethylene cannula filled with heparin solution was inserted into the femoral artery of the rats to measure mean blood pressure. Mean blood pressure was measured with a pressure transducer and recorded on a polygraph. The test compound dissolved in ethanol, polyethylene glycol and distilled water (1:1:1) was administered through a polyethylene cannula inserted into the femoral vein in a volume of 1 ml/kg. Intravenous hypotensive effect of the test compound was expressed as the maximal decrease (R max). Briefly, R max was expressed as maximal % change compared to mean blood pressure prior to the administration of the test compound.

For `O=C(O)COc1cccc2c1CC[C@](O)(COC(=O)N(c1ccccc1)c1ccccc1)C2` [Sodium salt of (2R)-[5-(carboxymethoxy)-2-hydroxy-1,2,3,4-tetrahydro-2-naphthyl]methyl N,N-diphenylcarbamate], the “Inhibition (%) of specific [^3 H]-iloprost binding” value (human IP receptor) was 96.5%.
`O=C(O)COc1cccc2c1CCC(O)(COC(=O)N(c1ccccc1)c1ccccc1)C2` (stereo not shown) [Test compound (1), Sodium salt of [5-(carboxymethoxy)-2-hydroxy-1,2,3,4-tetrahydro-2-naphthyl]methyl N,N-diphenylcarbamate] was tested, and the inhibition at 0.1 µM ([1]; 1.0 × 10^-7 M) was 97 ± 1.2% and the “R max (%): maximal decrease (maximal % change compared to mean blood pressure prior to administration)” value [2] was 27.5%.
`O=C(O)COc1cccc2c1CCC(Cn1nc(C(c3ccccc3)c3ccccc3)ccc1=O)C2` (stereo not shown) [Test compound (2), 2-[(1,2,3,4-Tetrahydro-5-carboxymethoxy-2-naphthyl)methyl]-6-diphenylmethyl-3(2H)-pyridazinone] was tested, and the inhibition at 1 µM ([1]; 1.0 × 10^-6 M) was 100 ± 0.4%.
